In patent US20140056951A1, “METHODS AND COMPOSITIONS FOR TREATING BIOFILMS” (PRESIDENT AND FELLOWS OF HARVARD COLLEGE, priority 2011, published 2014):

Assays:
[1] = system: B. subtilis strain NCBI3610; assay: Biofilm (pellicle) inhibition assay, B. subtilis in liquid biofilm-inducing medium; format: cell-based, Bacillus subtilis; conditions: for concentration above which inhibition of biofilm formation is observed: B. subtilis pellicle formation; for inhibition of pellicle formation at 50 μM: cells diluted 1:1000 in biofilm media, final concentration 50 μM; for minimal effective concentration: Bacillus subtilis, NCBI3610, read-out: MBIC- Minimal Biofilm Inhibitory Concentration; for biofilm-inhibitory activity against B. subtilis: structure-activity
Description: Bacillus subtilis strains PY79, 3610 and their derivatives were grown in Luria-Bertani (LB) medium at 37° C. or MSgg medium (1) at 23° C. Solid media contained 1.5% Bacto agar. When appropriate, antibiotics were added at the following concentrations for growth of B. subtilis: 10 μg per ml of tetracycline, and 5 μg per ml of erythromycin, 500 μg per ml of spectinomycin.
B. subtilis strain NCBI3610 was grown at 22° C. in 12-well plates in liquid biofilm-inducing medium for 3 or 8 days. Conditioned medium (500 ml) from an 8-day-old culture was concentrated on the C-18 column and eluted step-wise with methanol. […]
Pellicle formation of strain NCBI 3610 was tested in the presence of the indicated concentrations of norspermidine (FIG. 1D) or spermidine (FIG. 1E).
To identify features of norspermidine important for its biofilm disassembly activity, we tested a library of polyamines in our biofilm inhibition assay (FIGS. 9A, 9B, 10 and Table 2).
The effect of polyamines on pellicle formation by B. subtilis was examined. B. subtilis wild-type cells were grown to a mid-logarithmic phase and diluted 1:1000 in biofilm media applied with each polyamine to the final concentration of 50 μM.
The effect of cyclic polyamines on biofilm formation by B. subtilis was examined. B. subtilis wild-type cells were grown to a mid-logarithmic phase and diluted 1:1000 in biofilm media (18A) or in a medium applied with cyclic compound 1,5,9-Triazacyclododecane to the final concentration of 50 μM (18B).

[2] = system: B. subtilis wild-type cells; assay: Biofilm formation on solid biofilm medium, B. subtilis; format: cell-based, Bacillus subtilis; conditions: 1 μl of cells mixed with 1 μl (1 mM) polyamine
Description: B. subtilis wild-type cells were grown to a mid-logarithmic phase and 1 μl of cells was mixed with 1 μl (1 mM) of each polyamine. The mixture was plated on solid biofilm medium.
B. subtilis wild-type cells were grown to a mid-logarithmic phase and 1 μl of cells was either mixed with PBS (18C) or mixed with 1 μl (1 mM) of each polyamine (18D). The mixture was plated on solid biofilm medium. “3*” refers to 1,5,9-Triazacyclododecane.

[3] = system: exopolysaccharide of S. aureus cells; assay: Fluorescence microscopy of exopolysaccharide staining, S. aureus; format: cell-based, Staphylococcus aureus
[4] = system: exopolysaccharide of E. coli cells; assay: Fluorescence microscopy of exopolysaccharide staining, E. coli; format: cell-based, Escherichia coli
From the text: In testing E. coli, the biofilm-proficient strain MC4100 was selected because a major component of exopolysacchride is colanic acid (Danese et al., 2000; Price and Raivio, 2009).

[5] = system: exopolysaccharide and TasA of B. subtilis NCBI 3610; assay: Fluorescence microscopy of matrix components (concanavalin A-Texas Red, TasA-mCherry), B. subtilis; format: cell-based, Bacillus subtilis; conditions: norspermidine 25 μM, spermidine 1 mM
From the text: The cells were washed in PBS and stained for exopolysaccharide with a conjugate of concanavalin A with Texas-Red.
[…] Cells were washed in PBS, and visualized by fluorescence microscopy.
To investigate further, exopolysaccharide was visualized by fluorescence microscopy using a conjugate of the carbohydrate-binding protein concanavalin A with Texas Red (FIG. 5) (McSwain et al., 2005). As evidence of specificity, the conjugate decorated wild-type cells but not cells from a mutant (Aeps) blocked in exopolysaccharide production (FIG. 6A). Indeed, at an exposure at which concanavalin A staining with the wild type strain gave an extremely bright fluorescent signal, little or no signal could be detected for the Aeps mutant, except at long exposures and enhanced brightness (FIG. 6A). Next, we investigated the effects of norspermidine and spermidine. […] Therefore, the difference in the staining was evidently due to differential levels of cell-associated exopolysaccharide. […] Thus, while not being bound to any theory, it is believed that norspermidine disrupts the matrix and by targeting exopolysaccharide.

[6] = B. subtilis biofilm inhibition assay, library of polyamines

Row | Compound | minimal effective concentration [1, 6] [µM] | other results
1 | 1,3-diaminopropane [Molecule 6] | – | MBIC- Minimal Biofilm Inhibitory Concentration [1, 6]: 2500 to 5000 µM; concentration above which inhibition of biofilm formation is observed [1]: > 5 mM
2 | NCCCCNCCCN [Molecule 3, 1,8-diamino-4-azaoctane, reference compound] | – | inhibition of biofilm formation on solid biofilm medium [2]: do not; concentration above which inhibition of biofilm formation is observed ([1]; listed as spermidine): > 2 mM; inhibition of pellicle formation at 50 μM [1]: do not; staining of exopolysaccharide, S. aureus cells [3]: not; staining of exopolysaccharide, E. coli cells [4]: not; pattern of concanavalin A-Texas Red staining of exopolysaccharide [5]: No such effect
3 | NCCCCNCCCN [Molecule 3, spermidine] | 5000 | –
4 | NCCCNCCCCNCCCN [Molecule 4, 1,12-diamino-4,9-diazaoctane, reference compound] | 2500 | –
5 | NCCCCN [Molecule 5, 1,4-diaminobutane, reference compound] | 2000 to 3000 | –
6 | CN(C)CCCN(C)CCCN(C)C [Molecule 7, N^1-(3-(dimethylamino)propyl)-N^1,N^3,N^3-trimethylpropane-1,3-diamine] | > 5000 | –
7 | CN(C)CCCNCCCN(C)C [Molecule 8, N^1-(3-(dimethylamino)propyl)-N^3, N^3-dimethylpropane-1,3-diamine] | > 5000 | –
8 | CN(CCCN)CCCN [Molecule 9, (3-aminopropyl)-N^1-methylpropane-1,3-diamine] | > 5000 | –
9 | NCCCOCCCN [Molecule 10, 3,3′-oxybis(propan-1-amine)] | 5000 | –
10 | CCOC(=O)CCC(=O)CCC(=O)OCC [Molecule 11, Diethyl 4-oxoheptanedioate] | > 5000 | –
11 | c1cc2ccc1CNCCCNCCCNCc1ccc(cc1)CNCCCNCCCNC2 [Molecule 12, 3,7,11,18,22,26-Hexaazatricyclo[26.2.2.213,16]tetratriaconta-13,15,28,30,31,33-hexaene] | 500 | biofilm-inhibitory activity against B. subtilis ([1]; library of polyamines): active
12 | CCCCCCCCCCCCNCCCNCCCNCCCCCCCCCCCC [Molecule 13, N^1-dodecyl-N^3-(3-(dodecylamino)propyl)propane-1,3-diamine] | 100 | biofilm-inhibitory activity against B. subtilis ([1]; library of polyamines): active
13 | Cc1c(Cc2[nH]c(C(=O)OC(C)(C)C)c(C)c2C)[nH]c(Cc2[nH]c(C(=O)OC(C)(C)C)c(C)c2C)c1C [Molecule 14, di-tert-butyl 5,5′-((3,4-dimethyl-1H-pyrrole-2,5-diyl)bis(methylene))bis(3,4-dimethyl-1H-pyrrole-2-carboxylate)] | 500 to 700 | biofilm-inhibitory activity against B. subtilis ([1]; library of polyamines): active
14 | NNC(=O)Cc1ccc(CC(=O)NN)[nH]1 [Molecule 15, 2,2′-(1H-pyrrole-2,5-diyl)di(acetohydrazide)] | > 5000 | –
15 | CN(C)N(CCC(N)=O)CCC(N)=O [Molecule 16, 3,3′-(2,2-dimethylhydrazine-1,1-diyl)dipropanamide] | > 5000 | –
16 | O=C(NCCCNCCCNC(=O)C(O)C(O)C(O)C(O)CO)C(O)C(O)C(O)C(O)CO (centres unmarked) [Molecule 17, N,N′-(azanediylbis(propane-3,1-diyl))bis(2,3,4,5,6-pentahydroxyhexanamide)] | > 5000 | –
17 | NCCCCCN [Molecule 19, pentane-1,5-diamine, reference compound] | 3000 | –
18 | OCCCNCCCO [Molecule 20, 3,3′-azanediylbis(propan-1-ol)] | > 5000 | –
19 | NCCCN(CCCN)CCCN [Molecule 21, N^1,N^1-bis(3-aminopropyl)propane-1,3-diamine] | 200 | biofilm-inhibitory activity against B. subtilis ([1]; library of polyamines): did not block activity
20 | C1CNCCCNCCCNC1 [c, 1,5,9-triazacyclododecane] | – | inhibition of biofilm formation on solid biofilm medium [2]: inhibits biofilm formation; inhibition of pellicle formation at 50 μM [1]: inhibits biofilm formation
21 | C1COCCN1 [morpholine, reference compound] | – | inhibition of pellicle formation at 100 μM ([1]; NCBI3610 in fresh medium, 100 μM (FIG. 1B)): inactive
